Some test systems named below: M14 melanoma; NCI-H522 lung; NCI/ADR-RES ovarian; MDA-MB-231 breast; LOX IMVI melanoma; HOP-62 NSCLC; CAKI-1 renal; SF-268 CNS; MDA-MB-435; NCI-H460 lung.
Test in all cases: NCI-60 cell line screen, 48 h

Data on eight molecules can be found in PubChem BioAssay (NCI).

Molecules are shown by their SMILES.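 Cultured in 96-well plates, cells were exposed to test compound for 48 hours across five concentrations. GI50 = concentration required for 50% inhibition of growth. TGI denotes the concentration required for complete inhibition of growth.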

With `CCN(CC)CCCC(Cc1ccccc1)Nc1c2ccc(Cl)cc2nc2ccc(OC)cc12` (configuration not stated), the GI50 in the assay on M14 melanoma was 1.82 µM; in the assay with NCI-H522 lung it was 1.81 µM; in the assay on NCI/ADR-RES ovarian, 3.02 µM; with MDA-MB-231 breast, 1.65 µM; in the assay on LOX IMVI melanoma, 1.6 µM; with HOP-62 NSCLC, 3.39 µM. For the same molecule, the GI50 with CAKI-1 renal is 2.1 µM; with SF-268 CNS, 2.14 µM; with MDA-MB-435, 1.5 µM; in the assay with NCI-H460 lung it was 2.44 µM. Also, the TGI amounted to 3.51 µM in the assay on M14 melanoma; 3.57 µM in the assay with NCI-H522 lung; 10.4 µM in the assay with NCI/ADR-RES ovarian; 3.7 µM with MDA-MB-231 breast; 3.04 µM in the assay with LOX IMVI melanoma; 12.5 µM with HOP-62 NSCLC. Besides, the TGI stood at 5.9 µM in the assay with CAKI-1 renal, 5.84 µM in the assay on SF-268 CNS, 2.89 µM in the assay on MDA-MB-435 and 5.92 µM in the assay on NCI-H460 lung.
As for `COc1ccc(OC)c(/C=C2\COc3ccc(O)c(O)c3C2=O)c1`, the GI50 is 2.09 µM in the assay on M14 melanoma; 0.219 µM in the assay on NCI-H522 lung; 2.51 µM in the assay with NCI/ADR-RES ovarian; 2.74 µM in the assay on MDA-MB-231 breast; 1.48 µM in the assay with LOX IMVI melanoma; 8.63 µM with HOP-62 NSCLC. Besides, the GI50 in the assay on CAKI-1 renal is 2.08 µM; in the assay with SF-268 CNS it was 2.19 µM; in the assay on MDA-MB-435 it was 1.97 µM; with NCI-H460 lung it was 2.07 µM. Moreover, the TGI in the assay on M14 melanoma turned out to be 6.9 µM; in the assay on NCI-H522 lung it was 0.58 µM; with NCI/ADR-RES ovarian, 10.9 µM; with MDA-MB-231 breast, 11.8 µM; with LOX IMVI melanoma, 3.02 µM; with HOP-62 NSCLC, 24.5 µM. Moreover, the TGI came to 5.73 µM with CAKI-1 renal, 10.8 µM with SF-268 CNS, 5.48 µM in the assay with MDA-MB-435 and 5.61 µM with NCI-H460 lung.
Turning to `CSC1=Nc2c(c(C)c(C)n2COC(CO)CO)C2=NC(=O)CC(C)N12` (configuration not stated), the GI50 in the assay with NCI-H522 lung, in the assay with NCI/ADR-RES ovarian, in the assay with MDA-MB-231 breast, in the assay on LOX IMVI melanoma, in the assay on HOP-62 NSCLC and in the assay on CAKI-1 renal was more than 100 µM throughout. For the same molecule, the GI50 in the assay with SF-268 CNS, in the assay with MDA-MB-435 and in the assay with NCI-H460 lung was more than 100 µM in each case. The TGI with NCI-H522 lung, in the assay with NCI/ADR-RES ovarian, in the assay on MDA-MB-231 breast, with LOX IMVI melanoma, in the assay with HOP-62 NSCLC and in the assay with CAKI-1 renal was more than 100 µM in each case. Besides, the TGI in the assay with SF-268 CNS, in the assay on MDA-MB-435 and in the assay on NCI-H460 lung was more than 100 µM throughout.
As for `O=C(Cc1ccccc1)NC(c1ccc(Cl)cc1)c1c(O)ccc2ccccc12` (configuration not stated), the GI50 in the assay on NCI-H522 lung is 2.82 µM; with NCI/ADR-RES ovarian it was 3.41 µM; in the assay with MDA-MB-231 breast, 1.98 µM; in the assay on LOX IMVI melanoma, 3.11 µM; in the assay on HOP-62 NSCLC it was 2.84 µM; in the assay with CAKI-1 renal it was 2.52 µM. For the same molecule, the GI50 was 4.25 µM with SF-268 CNS, 2.91 µM with MDA-MB-435 and 2.66 µM in the assay on NCI-H460 lung. Further, the TGI with NCI-H522 lung was found to be 7.57 µM; in the assay on NCI/ADR-RES ovarian, 11.5 µM; with MDA-MB-231 breast, 4.73 µM; in the assay on LOX IMVI melanoma, 9.71 µM; with HOP-62 NSCLC, 8.57 µM; in the assay on CAKI-1 renal, 10.2 µM. Further, the TGI with SF-268 CNS worked out at 16 µM; in the assay on MDA-MB-435 it was 10.7 µM; with NCI-H460 lung, 7.61 µM.
`N#C/C(=C1C=C/C(=N\O)C(Cl)=C\1)c1ccccc1`: the GI50 was 3.2 µM in the assay with M14 melanoma; 1.98 µM in the assay with NCI-H522 lung; 1.66 µM in the assay on NCI/ADR-RES ovarian; 2.26 µM with MDA-MB-231 breast; 1.91 µM with HOP-62 NSCLC; 1.68 µM with CAKI-1 renal. The results for the GI50 with SF-268 CNS, in the assay with MDA-MB-435 and with NCI-H460 lung were 2.19 µM, 0.542 µM and 2.82 µM, respectively. Moreover, the TGI was found to be 14.2 µM with M14 melanoma; 7.92 µM in the assay with NCI-H522 lung; 5.17 µM in the assay on NCI/ADR-RES ovarian; 6.7 µM in the assay on MDA-MB-231 breast; 13 µM in the assay with HOP-62 NSCLC; 21.3 µM in the assay on CAKI-1 renal. For the same molecule, the TGI was 14.3 µM with SF-268 CNS, 2.66 µM in the assay with MDA-MB-435 and 11.9 µM with NCI-H460 lung.
For `COc1ccc(-c2nc(N3CCOCC3)c3sc(CN(C)c4ncc(C(=O)NO)cn4)cc3n2)cn1`, the GI50 was 0.0282 µM with MDA-MB-231 breast; less than 0.0106 µM in the assay with HOP-62 NSCLC; 0.0176 µM in the assay on CAKI-1 renal; 0.0178 µM with SF-268 CNS; less than 0.01 µM with MDA-MB-435; less than 0.01 µM with NCI-H460 lung. Moreover, the TGI with MDA-MB-231 breast came to 0.331 µM; in the assay on HOP-62 NSCLC it was 0.123 µM; with CAKI-1 renal it was 0.0436 µM; with SF-268 CNS it was 0.204 µM; with MDA-MB-435, 0.0284 µM; in the assay with NCI-H460 lung, 10.9 µM.
For `O=C(Nc1ccc(OCc2nnc(-c3ccccc3)o2)c(F)c1)Nc1ccc(Cl)c(C(F)(F)F)c1`, the GI50 was 2.97 µM in the assay on M14 melanoma; 1.51 µM with NCI-H522 lung; 2.27 µM in the assay with NCI/ADR-RES ovarian; 2.3 µM in the assay with MDA-MB-231 breast; 2.83 µM in the assay with LOX IMVI melanoma; 2.84 µM in the assay with HOP-62 NSCLC. The GI50 is 3.52 µM with SF-268 CNS, 2.71 µM in the assay with MDA-MB-435 and 1.52 µM in the assay with NCI-H460 lung. Also, the TGI in the assay on M14 melanoma amounted to 47 µM; with NCI-H522 lung, 4.87 µM; with NCI/ADR-RES ovarian, 7.65 µM; with MDA-MB-231 breast, 6.03 µM; in the assay with LOX IMVI melanoma, 12.9 µM; with HOP-62 NSCLC, 7.95 µM. The figures for the TGI in the assay with SF-268 CNS, in the assay on MDA-MB-435 and in the assay with NCI-H460 lung were 19.2 µM, more than 100 µM and 3.7 µM, respectively.
As for `O=C(NC1CCCCC1)NS(=O)(=O)c1ccc(-n2nc3c(c2-c2ccc(Cl)cc2)Cc2ccccc2-3)cc1`, the GI50 in the assay on M14 melanoma was 13.7 µM; in the assay with NCI-H522 lung, 18.3 µM; with MDA-MB-231 breast, 6.43 µM; with LOX IMVI melanoma, 1.94 µM; in the assay on HOP-62 NSCLC, 35.8 µM; in the assay with CAKI-1 renal it was 4.52 µM. In addition, the results for the GI50 in the assay on SF-268 CNS, in the assay on MDA-MB-435 and with NCI-H460 lung were 20.1 µM, 8.27 µM and 19.8 µM, respectively. The TGI in the assay with M14 melanoma was more than 100 µM; in the assay with NCI-H522 lung, 52.5 µM; in the assay with MDA-MB-231 breast, 23 µM; with LOX IMVI melanoma, 4.12 µM; in the assay with HOP-62 NSCLC it was more than 100 µM; in the assay on CAKI-1 renal, 19.3 µM. In addition, the TGI in the assay on SF-268 CNS was 45.6 µM; in the assay on MDA-MB-435, 28.1 µM; in the assay with NCI-H460 lung, 46 µM.
